B1: RAD51: key factor in the homologous recombination pathway, given as EF1-driven expression plasmid (protein, UniProt Q06609 2-339, looked up)
DNA repair protein RAD51 …: AMQMQLEANADTSVEEESFGPQPISRLEQCGINANDVKKLEEAGFHTVEAVAYAPKKELINIKGISEAKADKILAEAAKLVPMGFTTATEFHQRRSEIIQITTGSKELDKLLQGGIETGSITEMFGEFRTGKTQICHTLAVTCQLPIDRGGGEGKAMYIDTEGTFRPERLLAVAERYGLSGSDVLDNVAYARAFNTDHQTQLLYQASAMMVESRYALLIVDSATALYRTDYSGRGELSARQMHLARFLRMLLRLADEFGVAVVITNQVVAQVDGAAMFAADPKKPIGGNIIAHASTTRLYLRKGRGETRICKIYDSPCLPEAEAMFAINADGVGDAKD
modifications: expressed from EF1 plasmid

Legend:
Type in all cases: cell-based, human
[1] = system: CTNNB1 locus in iPSCs; assay: Effects of small molecules and factors on HDR efficiency, FACS; conditions: for effect on HDR efficiency at the CTNNB locus: donor pD-mNeonGreen-sg-HA300-300 bp, added first 24 h: RS-1 10 μM, Nu7441 2 μM, SCR7 1 μM, Brefeldin A 0.1 μM, L755507 5 μM
Source text: (§1) In this experiment, the verified highly efficient pD-sg-HA300-300 bp double cut donor and multiple small molecules were used to examine the effects on HDR of both the CTNNB1 and PRDM14 loci in iPSCs. Multiple small molecules include RS-1 (a stimulator of human homologous recombination protein RAD51), NU7441 (a DNA-PKcs inhibitor), SCR7 (a DNA ligase IV inhibitor), Brefeldin A, L755507, and
(§2) iPSCs were evenly split into eight wells after nucleofection with Cas9/sgRNA and the relevant double cut donor (pD-mNeonGreen-sg-HA300-300 bp or pD-GFP-sg-HA300-300 bp). DMSO control (0.1%), RS-1 (10 μM), Nu7441 (2 μM), SCR7 (1 μM), Brefeldin A (0.1 μM), L755507 (5 μM), Nocodazole (100 ng/mL), or Nu7441 (2 μM) and SCR7 (1 μM) were added in the wells for the first 24 h and then the medium was changed with fresh medium thereafter. Three days after nucleofection, cells were harvested for FACS analysis to determine the HDR efficiency in each condition.
(§3) The plasmid encoding RAD51, Ad4E1B-Eorf46, or CCND1 was co-transfected with Cas9, sgRNA, and donor plasmid (pD-mNeonGreen-sg-HA300-300 bp or pD-GFP-sg-HA300-300 bp). Three days after transfection, cells were harvested for FACS analysis to determine the HDR efficiency in each condition.
(§4) In this experiment, CCND1 and Nocodazole were used together to examine the effects on HDR of both the CTNNB1 and PRDM14 loci in iPSCs. The plasmid encoding CCND1 was co-transfected with Cas9, sgRNA, and donor plasmid (pD-mNeonGreen-sg-HA300-300 bp or pD-GFP-sg-HA300-300 bp). Nocodazole (100 ng/mL) was added into the medium at 0-24 h after transfection. Three days after incubation, cells were harvested for FACS analysis to determine the HDR efficiency in each condition.

[2] = system: PRDM14 locus in iPSCs; assay: as above
Source text: as §1, §2, §3, §4

[3] = system: CTNNB1 locus in the H1 ES cells; assay: Effects of small molecules on HDR efficiency, FACS; conditions: FACS day 3; for effect on HDR efficiency at the CTNNB locus: donor pD-mNeonGreen-sg-HA300-300 bp, added first 24 h: RS-1 10 μM, Nu7441 2 μM, SCR7 1 μM, Brefeldin A 0.1 μM, L755507 5 μM
Method: (§5) In this experiment, the H1 ES cells were evenly split into eight wells after nucleofection with Cas9/sgRNA and the relevant double cut donor (pD-mNeonGreen-sg-HA300-300 bp or pD-GFP-sg-HA300-300 bp). DMSO control (0.1%), RS-1 (10 μM), Nu7441 (2 μM), SCR7 (1 μM), Brefeldin A (0.1 μM), L755507 (5 μM), Nocodazole (100 ng/mL), or Nu7441 (2 μM) and SCR7 (1 μM) were added in the wells for the first 24 h and then the medium was changed with fresh medium thereafter. Three days after nucleofection, cells were harvested for FACS analysis to determine the HDR efficiency in each condition.

[4] = system: PRDM14 locus in the H1 ES cells; assay: Effects of small molecules on HDR efficiency, FACS; conditions: FACS day 3; for effect on HDR efficiency at the PRDM14 locus: donor pD-GFP-sg-HA300-300 bp, added first 24 h: RS-1 10 μM, Nu7441 2 μM, SCR7 1 μM, Brefeldin A 0.1 μM, L755507 5 μM
Method: as §5

[5] = system: CTNNB1 locus in iPSCs; assay: sgRNA cleavage efficiency at CTNNB1; conditions: targets 39 bp before the stop codon, data not shown
[6] = system: PRDM14 locus in iPSCs; assay: sgRNA cleavage efficiency at PRDM14; conditions: cleavage site 4 bp downstream of the stop codon, data not shown
[7] = donor pD-GFP-sg-HA300-300 bp, added first 24 h: RS-1 10 μM, Nu7441 2 μM, SCR7 1 μM, Brefeldin A 0.1 μM, L755507 5 μM, FACS day 3, vs DMSO
[8] = Nocodazole 100 ng/mL first 24 h, FACS day 3, vs DMSO, P<0.001
[9] = Nocodazole 100 ng/mL first 24 h

Molecule | effect on HDR efficiency at the CTNNB locus ([1]; FACS day 3, vs DMSO) | effect on HDR efficiency at the PRDM14 locus [2, 7] | effect on HDR efficiency at the CTNNB locus [3] | effect on HDR efficiency at the PRDM14 locus [4] | further results
C[C@H]1CCC/C=C/[C@@H]2C[C@H](O)C[C@H]2[C@H](O)/C=C/C(=O)O1 [Brefeldin A] | less pronounced improvement | only at the CTNNB locus | less pronounced improvement | only at the CTNNB locus | 
CCCCCCNC(=O)Nc1ccc(S(=O)(=O)Nc2ccc(CCNC[C@H](O)COc3ccc(O)cc3)cc2)cc1 [L755507] | did not show significant improvement | did not show significant improvement | did not show significant improvement | did not show significant improvement | 
COC(=O)Nc1nc2ccc(C(=O)c3cccs3)cc2[nH]1 [Nocodazole] |  |  |  |  | increase of HDR efficiency at the CTNNB locus [1, 8]: ~50%; increase of HDR efficiency at the PRDM14 locus [2, 8]: ~50%; increase of HDR efficiency at the CTNNB locus [3, 9]: ~50%; increase of HDR efficiency at the PRDM14 locus [4, 9]: ~50%
O=c1cc(N2CCOCC2)oc2c(-c3cccc4c3sc3ccccc34)cccc12 [Nu7441, NU7441] | less pronounced improvement | only at the CTNNB locus | less pronounced improvement | only at the CTNNB locus | 
O=C(Nc1ccc(Br)cc1)c1ccc(Br)c(S(=O)(=O)NCc2ccccc2)c1 [RS-1] | did not show significant improvement | did not show significant improvement | did not show significant improvement | did not show significant improvement | 
O=c1[nH]c(=S)[nH]c(N=Cc2ccccc2)c1N=Cc1ccccc1 [SCR7] | did not show significant improvement | did not show significant improvement | did not show significant improvement | did not show significant improvement | 
sgCTNNB1: sgRNA targeting 39 bp before the CTNNB1 stop codon, GCTGATTGCTGTCACCTGG (SEQ ID NO: 5) (listed as DNA, chemistry not given here) |  |  |  |  | cleavage efficiency [5]: 60%
sgPRDM14: sgRNA targeting the sequence surrounding the PRDM14 stop codon, GAAGACTACTAGCCCTGCC (SEQ ID NO: 11) (listed as DNA, chemistry not given here) |  |  |  |  | cleavage efficiency [6]: ~30%
B1 |  |  |  |  | effect on HDR efficiency at the CTNNB1 locus ([1]; expression plasmid co-transfected with Cas9, sgRNA and pD-mNeonGreen-sg-HA300-300 bp, FACS day 3, P<0.001): significantly decreased; effect on HDR efficiency at the PRDM14 locus ([2]; expression plasmid co-transfected with Cas9, sgRNA and pD-GFP-sg-HA300-300 bp, FACS day 3, P<0.001): significantly decreased
